Drawing on PubChem BioAssay (NCI), this text covers GI50 and TGI for nine molecules.

Assay in all cases: NCI tumour cell line growth inhibition, 48 h
Assay [1] deals with HOP-92 NSCLC.
The subject of assay [2] is CAKI-1 renal.
The subject of assay [3] is SF-539 CNS.
Assay [4] concerns UO-31 renal.
Assay [5] has as its system OVCAR-8 ovarian.
Assay [6] has as its system NCI-H226 lung.
The subject of assay [7] is SF-268 CNS.
The test system of assay [8] is HCT-116 colon.
Assay [9] relates to LOX IMVI melanoma.
Assay [10] has as its system OVCAR-4 ovarian.

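Compound exposure: 48 hours, 5 concentrations, 96-well plates. At the GI50, growth is halved. TGI: concentration producing complete growth inhibition.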

Consider `Cc1ccc(C)c2c1C(O)(C#Cc1ccccc1)c1ccccc1C2(O)C#Cc1ccccc1` (stereo not given), for which the GI50 in [1] is 2.29 µM; in assay [2] it was 2.38 µM; in assay [3], 3.42 µM; in assay [4], 1.89 µM; in assay [5] it was 3.82 µM; in [6], 1.9 µM. Besides, the GI50 was 3.65 µM in assay [7], 3.04 µM in assay [8], 3.44 µM in [9] and 3.85 µM in [10]. Moreover, the TGI in [1] was above 27.3 µM; in assay [2], above 30.7 µM; in assay [3] it was above 79.3 µM; in assay [4], 6.83 µM; in assay [5], above 100 µM; in [6], 9.46 µM. Also, the TGI was above 100 µM in assay [7], above 100 µM in assay [8], above 64.2 µM in [9] and above 100 µM in assay [10].
As to `Cc1nc(SCC(=O)Nc2nc(-c3ccc(Cl)cc3)cs2)n(Nc2ccccc2)c1C`, the GI50 in assay [1] was 1.61 µM; in assay [2], 3.93 µM; in assay [3], 1.9 µM; in assay [4] it was 3.59 µM; in [5], 2.71 µM; in [6], 3.37 µM. In addition, the GI50 is 4.8 µM in assay [7], 1.84 µM in assay [8], 1.78 µM in [9] and 4.6 µM in assay [10]. The TGI stood at 6.89 µM in [1]; 22.6 µM in [2]; 4.27 µM in [3]; 37.7 µM in assay [4]; 7.73 µM in [5]; 18.8 µM in assay [6]. The TGI in assay [7] amounted to 20.1 µM; in [8] it was 4.62 µM; in assay [9], 3.72 µM; in [10], 22.1 µM.
Turning to `C#CCOc1cccc(-c2ncnc3cc(NC(=O)CCl)ccc23)c1`, the GI50 in assay [1] was 1.42 µM; in assay [2], 0.2 µM; in assay [3] it was 1.31 µM; in assay [4] it was 0.36 µM; in assay [5], 0.168 µM; in assay [6], 1.42 µM. Also, the GI50 is 0.669 µM in [7], 0.034 µM in assay [8], 0.0385 µM in [9] and 1.2 µM in assay [10]. Moreover, the TGI in assay [1] worked out at 3.32 µM; in [2], 1.76 µM; in assay [3] it was 2.77 µM; in [4], 2.1 µM; in assay [5] it was 6.59 µM; in assay [6] it was 5.54 µM. Also, the TGI in [7] was found to be 2.94 µM; in [8], 1.48 µM; in assay [9] it was 1.34 µM; in [10] it was 2.59 µM.
In the case of `C=C1C(=O)O[C@@H]2C[C@@H](C)[C@@H]3C=CC(=O)[C@@]3(C)[C@@H](OC(=O)CC(=O)O[C@H]3[C@@H]4C(=C)C(=O)O[C@@H]4C[C@@H](C)[C@@H]4C=CC(=O)[C@]43C)[C@H]12`, the TGI in assay [1] came out at 0.0746 µM; in assay [2], 0.111 µM; in assay [3], 0.0781 µM; in assay [4], 0.271 µM; in assay [5] it was 0.0591 µM; in assay [6], 0.3 µM. Further, the TGI in assay [7] was found to be 0.374 µM; in assay [8] it was 0.0398 µM; in assay [9] it was 0.069 µM; in [10], 0.14 µM.
On to `Cc1cc(=O)oc2cc(OC(=O)N(C)C)c(Cl)cc12`, for which the TGI in assay [1], in assay [2], in [3], in assay [4], in [5] and in [6] was above 100 µM in each case. Moreover, the TGI in [7], in assay [8], in assay [9] and in assay [10] was above 100 µM each time.
Consider `COc1cc(OC)cc(N(CCNC(C)C)c2ccc3ncc(-c4cnn(C)c4)nc3c2)c1`, for which the GI50 was 3.32 µM in [1]; 2.8 µM in assay [2]; 0.586 µM in assay [3]; 2.23 µM in assay [4]; 4.75 µM in assay [5]; 4.53 µM in [6]. For the same molecule, the GI50 in assay [7] was 3.53 µM; in assay [8], 4.55 µM; in assay [9], 2.71 µM; in [10], 2.25 µM. Besides, the TGI in assay [1] is 15.5 µM; in assay [2], 13.3 µM; in assay [3], 7.25 µM; in [4], 12.3 µM; in assay [5], 18.9 µM; in [6], 23 µM. The TGI in assay [7] stood at 19 µM; in assay [8], 17 µM; in assay [9] it was 11.8 µM; in [10], 14.8 µM.
With `C=C(c1ccc2nc(NC(=O)OC)[nH]c2c1)c1cccs1`, the TGI in assay [1] is above 31 µM; in assay [2], 8.27 µM; in [3] it was 0.523 µM; in assay [4] it was above 62.4 µM; in assay [5] it was above 36.4 µM; in assay [6], above 94.5 µM. Besides, the TGI in assay [7] was above 100 µM; in assay [8], above 45.2 µM; in assay [9], above 52.6 µM; in [10], above 100 µM.
For the molecule `Cc1nn(-c2nc3ccccc3[nH]2)c(N)c1-c1ccc(Cl)cc1`, the GI50 was 3.28 µM in [1]; 8.82 µM in assay [2]; 5.89 µM in [3]; 3.79 µM in assay [4]; 4.36 µM in assay [5]; 8.66 µM in assay [6]. The GI50 in assay [7] is 5.65 µM; in assay [8], 4.37 µM; in [9], 5.02 µM; in assay [10], 5.1 µM. Moreover, the TGI in assay [1] was 75.4 µM; in assay [2], above 100 µM; in assay [3], above 100 µM; in assay [4], above 100 µM; in assay [5], above 100 µM; in assay [6] it was above 100 µM. Further, the TGI in [7], in [8], in assay [9] and in assay [10] was above 100 µM in each case.
As for `Cc1ccc(S(=O)(=O)NC(=O)C2C(=O)CC3(CCCCC3)CC2=O)cc1`, the TGI is 45.6 µM in [1]; 65.9 µM in assay [2]; 77.5 µM in [3]; 60.4 µM in [4]; 87.1 µM in assay [5]; above 100 µM in [6]. Besides, the TGI in assay [7] is above 100 µM; in assay [8] it was 74.4 µM; in assay [9] it was above 100 µM; in [10], above 100 µM.
